According to patent US20160002267A1, “BENZYL-SUBSTITUTED PYRAZOLOPYRIDINES AND USE THEREOF” (BAYER PHARMA AKTIENGESELLSCHAFT, priority 2013, published 2016):

Biological target: T1, guanylate cyclase (Rattus norvegicus, UniProt P19686+P20595)
T1 construct: expressed in transfected cells; host or cells: recombinant reporter cell line
T1 sequence (P20595 1-619): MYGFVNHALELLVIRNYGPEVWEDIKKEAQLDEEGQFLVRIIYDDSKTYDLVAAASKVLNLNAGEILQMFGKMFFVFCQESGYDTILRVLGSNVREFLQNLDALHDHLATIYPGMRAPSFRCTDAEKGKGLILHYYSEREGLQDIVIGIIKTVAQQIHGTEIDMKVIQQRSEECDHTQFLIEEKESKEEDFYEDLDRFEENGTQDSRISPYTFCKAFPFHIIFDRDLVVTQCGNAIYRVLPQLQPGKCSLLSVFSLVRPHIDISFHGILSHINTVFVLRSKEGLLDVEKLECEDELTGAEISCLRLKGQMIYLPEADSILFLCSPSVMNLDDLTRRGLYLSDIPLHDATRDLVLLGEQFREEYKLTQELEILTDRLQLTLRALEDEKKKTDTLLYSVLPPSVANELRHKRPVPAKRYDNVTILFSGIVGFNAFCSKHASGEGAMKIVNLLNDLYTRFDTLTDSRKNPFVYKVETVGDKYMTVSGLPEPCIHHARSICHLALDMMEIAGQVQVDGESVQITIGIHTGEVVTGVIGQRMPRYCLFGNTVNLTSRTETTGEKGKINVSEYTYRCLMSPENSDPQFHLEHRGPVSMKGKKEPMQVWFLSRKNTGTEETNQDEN
T1 sequence (P19686 1-690): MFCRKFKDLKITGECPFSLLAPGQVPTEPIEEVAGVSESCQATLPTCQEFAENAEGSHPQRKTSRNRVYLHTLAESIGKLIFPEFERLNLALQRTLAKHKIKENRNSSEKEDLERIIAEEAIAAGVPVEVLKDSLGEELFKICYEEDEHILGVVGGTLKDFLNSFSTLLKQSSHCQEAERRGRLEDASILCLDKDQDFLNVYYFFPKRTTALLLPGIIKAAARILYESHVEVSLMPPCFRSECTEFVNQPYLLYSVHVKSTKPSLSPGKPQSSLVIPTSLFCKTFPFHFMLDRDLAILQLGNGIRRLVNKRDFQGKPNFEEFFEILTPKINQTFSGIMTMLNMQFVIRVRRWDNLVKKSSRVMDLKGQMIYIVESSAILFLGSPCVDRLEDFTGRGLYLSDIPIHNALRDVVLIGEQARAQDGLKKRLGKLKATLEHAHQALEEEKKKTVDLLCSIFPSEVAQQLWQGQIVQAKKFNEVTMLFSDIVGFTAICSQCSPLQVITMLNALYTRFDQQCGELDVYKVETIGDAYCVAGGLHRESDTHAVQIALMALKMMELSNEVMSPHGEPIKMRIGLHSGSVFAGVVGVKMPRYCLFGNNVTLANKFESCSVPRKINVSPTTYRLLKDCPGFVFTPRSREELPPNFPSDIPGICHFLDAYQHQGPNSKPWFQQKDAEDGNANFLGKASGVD
Test: Effect on a recombinant guanylate cyclase reporter cell line
Type: cell-based
Method: The cellular activity of the compounds according to the invention is determined using a recombinant guanylate cyclase reporter cell line, as described in F. Wunder et al., Anal. Biochem. 339, 104-112 (2005).

MEC (minimum effective concentration): 0.3 µM
Compound: CC1(C(F)(F)F)C(=O)Nc2nc(-c3nn(Cc4ccccc4F)c4ncc(F)cc34)nc(NCCC(F)(F)F)c21 (single isomer, unassigned) [Example 1-2, 2-[5-Fluoro-1-(2-fluorobenzyl)-1H-pyrazolo[3,4-b]pyridin-3-yl]-5-methyl-5-(trifluoromethyl)-4-[(3,3,3-trifluoropropyl)amino]-5,7-dihydro-6H-pyrrolo[2,3-d]pyrimidin-6-one]
